Laboratory results taken from article PMC7269505, “An Engineered Double Lipid II Binding Motifs-Containing Lantibiotic Displays Potent and Selective Antimicrobial Activity against Enterococcus faecium” (Antimicrobial Agents and Chemotherapy, 2020).
“And” between values parts separate entries of the source, which are not always exact repeats. Equal entries are not always repeated. Where two headings read alike, the source gives them in different places. No end group written: not given here.

Legend:
E. faecium LMG16003 [1] = test: Antimicrobial activity of TL19 mutants (agar spot assay, Fig. 5d); type: cell-based, Enterococcus faecium; conditions: 1 nmol peptide, after removal of the leader peptide with NisP (Fig. 5d)
Excerpt: A highly conserved glutamate in HalA1 (Glu22) is essential for binding to its target lipid II ([12], [15], [16]). Mutating the glutamate residue in the CTLTXEC motif to alanine or glutamine completely abolished antibacterial activity ([15]). […] Therefore, either Glu34 in TL19 was mutated to Ala, Thr2 in TL19 was mutated to Asp, or both mutations were installed together in the same TL19 variant. […] NisC-catalyzed cyclization of the mutated peptides was investigated using CDAP treatment under reducing conditions followed by MS analysis.
FIG 5 Importance of both lipid II binding motifs for antimicrobial activity against E. faecium LMG16003. MALDI-TOF MS data of TL19 or TL19 mutants before (blue) and after (red) treated with CDAP. (a) TL19 (2Asp); (b) TL19 (34Ala); (c) TL19 (2Asp, 34Ala). (d) Antimicrobial activity for TL19 mutants against E. faecium LMG16003: 1, TL19 (1 nmol); 2, TL19 (2Asp) (1 nmol); 3, TL19 (34Ala) (1 nmol); 4, TL19 (2Asp, 34Ala) (1 nmol); 5, TL19 (2Asp) (1 nmol) plus TL19 (34Ala) (1 nmol); 6, negative control (buffer).

[2] = tested on: E. faecium ATCC U0317 (ACRE); test: MIC by broth microdilution; type: cell-based, Enterococcus faecium; conditions: cation-adjusted MHB, approx. 5 × 10^5 cells per ml, 20 h, 37°C, triplicates
Experimental: (§1) MIC was evaluated by broth microdilution according to the standard guidelines ([45]). Briefly, the test medium was cation-adjusted Mueller-Hinton broth (MHB). Cell concentration was adjusted to approximately 5 × 10^5 cells per ml. After 20 h of incubation at 37°C, the MIC was defined as the lowest concentration of antibiotic with no visible growth. Each experiment was performed in triplicates.

Micrococcus flavus = test: Screening of antibacterial activity by spot-on-lawn assay; type: cell-based; conditions: TCA-precipitated peptide 5 μl plus 1 μl NisP, GM17 0.8% agar, 30°C overnight (Fig. S1)
Experimental: To assess the antibacterial activity of TCA-precipitated samples on a agar plate, an overnight culture of Micrococcus flavus was added to the GM17 containing 0.8% (wt/vol) agar (at 42°C), and then the mixture was poured onto the plates, 30 ml per plate. After that, 5 μl of the peptides together with 1 μl of NisP were added to the plates, and the plates were transferred to the 30°C incubator for incubation overnight.

Escherichia coli GSK 12 = test: MIC by broth microdilution; type: cell-based; conditions: cation-adjusted MHB, approx. 5 × 10^5 cells per ml, 20 h, 37°C, triplicates
Experimental: as §1

E. faecium = test: MIC comparison across E. faecium strains; type: cell-based, Enterococcus faecium; conditions: from MIC values; for higher antibacterial activity than nisin(1-22): antibiotic-resistant E. faecium
Experimental: as §1

[3] = Complex formation with lipid II by thin-layer chromatography; type: binding; conditions: TLC, lipid II-lys or lipid II-dap (Fig. 4b1 and b2), 4 nmol, 30 min at 25°C
Experimental: Purified lipid II-lys or lipid II-dap (4 nmol) was incubated in chloroform-methanol-water (2:3:1), in the presence of increasing TL19 concentrations (TL19/lipid II molar ratios ranging from 0.3 to 2:1) in a total volume of 30 μl. After incubating for 30 min at 25°C, the mixture was analyzed by thin-layer chromatography using chloroform-methanol-water-ammonia (88:48:10:1), and the spots were visualized by iodine vapor ([20], [26]).

E. faecium LMG16003 [4] = test: Spot-on-lawn assay to measure peptide-lipid II complex formation; type: cell-based, Enterococcus faecium; conditions: peptide 1 nmol, either lipid II-lys or lipid II-dap
Experimental: An overnight cultured E. faecium LMG16003 was added to 0.8% MHA (wt/vol; temperature, 42°C) at a final concentration of 0.1% (vol/vol), and then the mixture was poured onto the plates (30 ml for each). Binding of peptide and lipid II was further evaluated by incubating purified lipid II with peptide in various molar ratios ranging from 0.5 to 2 with respect to the peptides (1 nmol). Subsequently, a spot-on-lawn assay was used to analyze the antimicrobial activity. After the lipid II solution drops with peptide had dried, the plates were transferred to the 37°C incubator for overnight incubation.

[5] = tested on: E. faecium (LMG16003; vancomycin-resistant strain); test: Time-kill assay; type: cell-based, Enterococcus faecium; conditions: MHB, 37°C, CFU counts, triplicates
Experimental: This assay was performed according to a previously described procedure ([29]). An overnight culture of cells (Enterococcus faecium LMG 16003; vancomycin-resistant strain) was diluted 50-fold in MHB and incubated at 37°C with aeration at 220 rpm. Bacteria were grown to an OD of 0.5, and then the cell concentration was adjusted to ≈5 × 10^5 cells per ml. Bacteria were then challenged with nisin (20 μM), nisin(1-22) (600 μM), or TL19 (10 μM) in culture tubes at 37°C and 220 rpm. (peptides at 10× MIC, a desirable concentration at the site of infection). Bacteria not treated with peptides were used as a negative control. At desired time points, 100-μl aliquots were taken, centrifuged at 8,000 × g for 2 min, and resuspended in 100 μl of MHB. Ten-fold serially diluted samples were plated on Mueller-Hinton agar (MHA) plates. After incubating at 37°C overnight, colonies were counted and CFU per milliliter was calculated. Each experiment was performed in triplicates.

[6] = tested on: E. faecium LMG16003 cells; test: Propidium iodide assay for membrane pore formation; type: cell-based, Enterococcus faecium; conditions: peptide 3 μM, propidium iodide 2.5 μg per ml, monitored for 3 h, excitation 533 nm, emission 617 nm
Experimental: The excitation and emission wavelengths on the fluorescence spectrometer were adjusted to 533 nm and 617 nm, respectively. E. faecium LMG16003 was grown to an OD600 of 0.6. To this cell suspension, propidium iodide (final concentration, 2.5 μg per ml) was added and incubated for 5 min. Peptides were added to a final concentration of 3 μM. Fluorescence was monitored for 3 h, with the peptide added after ∼60 s.

[7] = tested on: E. faecium ATCC E1162 (ARE); type: cell-based, Enterococcus faecium
Experimental: as §1

E. faecium 6Tom18 = type: cell-based, Enterococcus faecium
Experimental: as §1

E. faecium 4Tom19 = type: cell-based, Enterococcus faecium
Experimental: as §1

[8] = tested on: E. faecium ATCC HF50105 (ETVRE); type: cell-based, Enterococcus faecium
Experimental: as §1

E. faecium LMG11423 = type: cell-based, Enterococcus faecium
Experimental: as §1

[9] = tested on: E. faecium ATCC TX0082 (AEKVRE); type: cell-based, Enterococcus faecium
Experimental: as §1

[10] = tested on: E. faecium ATCC TX0133a04; type: cell-based, Enterococcus faecium
Experimental: as §1

[11] = tested on: E. faecium LMG16003 (VRE); type: cell-based, Enterococcus faecium
Experimental: as §1

[12] = tested on: E. faecium ATCC E1321 (AGRE); type: cell-based, Enterococcus faecium
Experimental: as §1

B. cereus ATCC 10987 = type: cell-based, Bacillus cereus
Experimental: as §1

B. cereus ATCC 14579 = type: cell-based, Bacillus cereus
Experimental: as §1

E. faecalis LMG8222 = type: cell-based, Enterococcus faecalis
Experimental: as §1

E. faecalis LMGV583 = type: cell-based, Enterococcus faecalis
Experimental: as §1

[13] = tested on: E. faecalis LMG16216 (VRE); type: cell-based, Enterococcus faecalis
Experimental: as §1

A. baumannii LMG01041 = type: cell-based, Acinetobacter baumannii
Experimental: as §1

S. aureus LMG10147 = type: cell-based, Staphylococcus aureus
Experimental: as §1

[14] = broth microdilution, cation-adjusted MHB, approx. 5 × 10^5 cells per ml, 20 h, 37°C, triplicates

IDSISLCTPGCKTGALMGCNMKTATCHYCTLTVECMPSCN [TL19 (2Asp), TL19 variant in which Thr2 was mutated to Asp]
antimicrobial activity relative to TL19 (E. faecium LMG16003 [1]): almost abolished the antimicrobial activity

ITSISLCTPGCKTGALMGCNMKTATCHYCTLTVACMPSCN [TL19 (34Ala)]
antimicrobial activity relative to TL19 (E. faecium LMG16003 [1]): severely reduced the antimicrobial activity

ITSISLCTPGCKTGALMGCNMKTATCHCTLTVECMPSCN (also: bicyclic or more (positions not given here)) [TL17, incompletely modified, not all rings formed]
MIC [2]: 7.5 μM and 29 μg/ml | antimicrobial activity against Micrococcus flavus (Micrococcus flavus): potent antimicrobial activity | MIC (Escherichia coli GSK 12): > 15 μM and > 58 μg/ml | higher antibacterial activity than nisin(1-22) (E. faecium): 16 fold

IDSISLCTPGCKTGALMGCNMKTATCHYCTLTVACMPSCN [TL19 (2Asp, 34Ala)]
antimicrobial activity relative to TL19 (E. faecium LMG16003 [1]): decreased or completely abolished the antimicrobial activity

ITSISLCTPGCKTGALMGCNMKTATCHYCTLTVECMPSCN (also: bicyclic or more (positions not given here)) [TL19, lantibiotic with seven thioether rings]
MIC [2]: 1.9 μM and 7.6 μg/ml | lipid II migration at a low ratio (0.3:1) of TL19 to lipid II [3]: lipid II migration was significantly inhibited | antibacterial activity upon addition of lipid II at a 1:1 (peptide/lipid II) ratio (E. faecium LMG16003 [4]): still showed potent antibacterial activity | antimicrobial activity against Micrococcus flavus (Micrococcus flavus): potent antimicrobial activity | MIC (Escherichia coli GSK 12): > 15 μM and > 60 μg/ml | higher antibacterial activity than TL17 (E. faecium; E. faecium): 4 fold | higher antibacterial activity than nisin(1-22) (E. faecium): 64 fold | time to complete killing ([5]; 10× MIC: nisin 20 μM, TL19 10 μM, ≈5 × 10^5 cells per ml): 24 h | pore formation (propidium iodide fluorescence increase) [6]: neither TL19 nor nisin(1-22) caused any fluorescence increase

C=C1NC(=O)[C@H]([C@@H](C)CC)NC(=O)[C@H](NC(=O)/C(=C/C)NC(=O)[C@@H](N)[C@@H](C)CC)CSC[C@@H](C(=O)N[C@H]2C(=O)N3CCC[C@H]3C(=O)NCC(=O)N[C@H](C(=O)N[C@@H](CCCCN)C(=O)N[C@H]3C(=O)NCC(=O)N[C@@H](C)C(=O)N[C@@H](CC(C)C)C(=O)N[C@@H](CCSC)C(=O)NCC(=O)N[C@H](C(=O)N[C@@H](CC(N)=O)C(=O)N[C@@H](CCSC)C(=O)N[C@@H](CCCCN)C(=O)O)CS[C@H]3C)CS[C@H]2C)NC(=O)[C@H](CC(C)C)NC1=O [Nisin(1-22), reference compound]
MIC ([7]; ATCC E1162, 20 h): > 60 µM | MIC [7, 14]: > 128 µg/mL | MIC (E. faecium 6Tom18; 6Tom18, 20 h): 30 µM | MIC (E. faecium 6Tom18; [14]): 64 µg/mL | MIC (E. faecium 4Tom19; 4Tom19, 20 h): 60 µM | MIC (E. faecium 4Tom19; [14]): 128 µg/mL | MIC ([8]; ATCC HF50105, 20 h): 30 µM | MIC [8, 14]: 64 µg/mL | MIC (E. faecium LMG11423; LMG11423, 20 h): 60 µM | MIC (E. faecium LMG11423; [14]): 128 µg/mL | MIC ([9]; ATCC TX0082, 20 h): 60 µM | MIC [9, 14]: 128 µg/mL | MIC ([10]; ATCC TX0133, 20 h): 60 µM | MIC [10, 14]: 128 µg/mL | MIC ([11]; LMG16003, 20 h): 60 µM | MIC [11, 14]: 128 µg/mL | MIC ([12]; ATCC E1321, 20 h): 60 µM | MIC [12, 14]: 128 µg/mL | MIC (B. cereus ATCC 10987; ATCC 10987, 20 h): > 60 µM | MIC (B. cereus ATCC 10987; [14]): > 128 µg/mL | MIC (B. cereus ATCC 14579; ATCC 14579, 20 h): 30 µM | MIC (B. cereus ATCC 14579; [14]): 64 µg/mL | MIC (E. faecalis LMG8222; LMG8222, 20 h): > 60 µM | MIC (E. faecalis LMG8222; [14]): > 128 µg/mL | MIC (E. faecalis LMGV583; LMGV583, 20 h): > 60 µM | MIC (E. faecalis LMGV583; [14]): > 128 µg/mL | MIC ([13]; LMG16216, 20 h): > 60 µM | MIC [13, 14]: > 128 µg/mL | MIC (Escherichia coli GSK 12): > 128 µg/mL | MIC (A. baumannii LMG01041; LMG01041, 20 h): > 60 µM | MIC (A. baumannii LMG01041; [14]): > 128 µg/mL | MIC (S. aureus LMG10147; LMG10147, 20 h): 15 µM | MIC (S. aureus LMG10147; [14]): 32 µg/mL | effect on population of viable cells within 11 h postexposition ([5]; 10× MIC: nisin(1-22) 600 μM): did not reduce the population of viable cells | killing in 48 h ([5]; 10× MIC: nisin(1-22) 600 μM): only slight killing was observed | pore formation (propidium iodide fluorescence increase) [6]: neither TL19 nor nisin(1-22) caused any fluorescence increase
